Experimental data reported in US7790742B2, “Substituted 4-phenyltetrahydroisoquinolines, pharmaceutical compositions thereof, methods for their preparation and therapeutic use” (Sanofi-Aventis Deutschland GmbH, priority 2004, dated 2010).

| Structure (SMILES) | melting point [°C] |
| --- | --- |
| CN1Cc2c(Cl)cc(Cl)cc2C(c2ccc(Nc3c(N(C)C4CCCCC4)c(=O)c3=O)cc2)C1 (stereo not shown) [Example 17, 6,8-dichloro-2-methyl-4-[4N-(2-N-cyclohexyl-N-methylamino-3,4-dioxocyclobuten-1-yl)amino]phenyl-1,2,3,4-tetrahydroisoquinoline] | 260 to 265 |
| CN1Cc2c(Cl)cc(Cl)cc2[C@H](c2ccc(Nc3c(N(C)C)c(=O)c3=O)cc2)C1 [Example 20, 6,8-dichloro-2-methyl-4(S)-[4N-(2-dimethylamino-3,4-dioxocyclobuten-1-yl)amino]phenyl-1,2,3,4-tetrahydroisoquinoline] | 240 to 247 |
| CN1Cc2c(Cl)cc(Cl)cc2[C@H](c2ccccc2Nc2c(N(C)C)c(=O)c2=O)C1 [Example 21, 6,8-dichloro-2-methyl-4(R)-[2N-(2-dimethylamino-3,4-dioxocyclobuten-1-yl)amino]phenyl-1,2,3,4-tetrahydroisoquinoline] | 236 to 240 |
| CN1Cc2c(Cl)cc(Cl)cc2[C@H](c2ccc(Nc3c(NC4CC4)c(=O)c3=O)cc2)C1 [Example 35] | 280 to 285 |
| CN1Cc2c(Cl)cc(Cl)cc2C(c2ccc(Nc3c(Nc4ccccc4)c(=O)c3=O)cc2)C1 (stereo not shown) [Example 43, 6,8-dichloro-2-methyl-4-[4N-(2-N-phenylamino-3,4-dioxocyclobuten-1-yl)amino]phenyl-1,2,3,4-tetrahydroisoquinoline] | 288 to 294 |
| CCCCCCNc1c(Nc2ccccc2C2CN(C)Cc3c(Cl)cc(Cl)cc32)c(=O)c1=O (stereo not shown) [Example 45, 6,8-dichloro-2-methyl-4-[2N-(2-N-(1-hexylamino)-3,4-dioxocyclobuten-1-yl)amino]phenyl-1,2,3,4-tetrahydroisoquinoline] | 157 to 160 |
| CN1Cc2c(Cl)cc(Cl)cc2C(c2ccccc2Nc2c(NC3CCCC3)c(=O)c2=O)C1 (stereo not shown) [Example 47, 6,8-dichloro-2-methyl-4-[2N-(2-N-cyclopentylamino-3,4-dioxocyclobuten-1-yl)amino]phenyl-1,2,3,4-tetrahydroisoquinoline] | 278 to 281 |
| CN1Cc2c(Cl)cc(Cl)cc2C(c2ccccc2Nc2c(NCc3ccco3)c(=O)c2=O)C1 (stereo not shown) [Example 48, 6,8-dichloro-2-methyl-4-[2N-(2N-(2-furylmethyl)amino-3,4-dioxocyclobuten-1-yl)amino]phenyl-1,2,3,4-tetrahydroisoquinoline] | 279 to 283 |
| CCNc1c(Nc2ccc(C3CN(C)Cc4c(Cl)cc(Cl)cc43)cc2)c(=O)c1=O (stereo not shown) [Example 51, 6,8-dichloro-2-methyl-4-[4N-(2-N-ethylamino-3,4-dioxocyclobuten-1-yl)amino]phenyl-1,2,3,4-tetrahydroisoquinoline] | 292 to 297 |

Now from value to compound:

| melting point [°C] | Structure (SMILES) |
| --- | --- |
| 224 to 230 | CNc1c(Nc2ccccc2C2CN(C)Cc3c(Cl)cc(Cl)cc32)c(=O)c1=O (stereo not shown) [Example 44, 6,8-dichloro-2-methyl-4-[2N-(2-N-methylamino-3,4-dioxocyclobuten-1-yl)amino]phenyl-1,2,3,4-tetrahydroisoquinoline] |
| 238 to 241 | CC(C)Nc1c(Nc2ccccc2C2CN(C)Cc3c(Cl)cc(Cl)cc32)c(=O)c1=O (stereo not shown) [Example 46, 6,8-dichloro-2-methyl-4-[2N-(2-N-isopropylamino-3,4-dioxocyclobuten-1-yl)amino]phenyl-1,2,3,4-tetrahydroisoquinoline] |
| 205 to 208 | CCNc1c(Nc2ccccc2C2CN(C)Cc3c(Cl)cc(Cl)cc32)c(=O)c1=O (stereo not shown) [Example 49, 6,8-dichloro-2-methyl-4-[2N-(2-N-ethylamino-3,4-dioxocyclobuten-1-yl)amino]phenyl-1,2,3,4-tetrahydroisoquinoline] |
| 208 to 211 | CN(C)CCNc1c(Nc2ccccc2C2CN(C)Cc3c(Cl)cc(Cl)cc32)c(=O)c1=O (stereo not shown) [Example 50, 6,8-dichloro-2-methyl-4-[2N-(2-N-dimethylaminoethylamino-3,4-dioxocyclobuten-1-yl)amino]phenyl-1,2,3,4-tetrahydroisoquinoline] |
